Source: ChEMBL document CHEMBL5113459 (Bioorg Med Chem Lett, 2022)

Columns and labels:
Format in all cases: functional, cell-based
LNCaP = experiment: Antiproliferative activity against human AR-positive LNCaP cells assessed as cell growth inhibition incubated for 3 days by WST-1 assay; conditions: 72 h
DU-145 = experiment: Antiproliferative activity against human AR-negative DU-145 cells assessed as cell growth inhibition incubated for 3 days by WST-1 assay; conditions: DU-145, 72 h
CWR22R = experiment: Antiproliferative activity against human AR-positive 22Rv1 cells assessed as cell growth inhibition incubated for 3 days by WST-1 assay; conditions: 22Rv1, 72 h
PC-3 = experiment: Antiproliferative activity against human AR-negative PC-3 cells assessed as cell growth inhibition incubated for 3 days by WST-1 assay; conditions: PC-3, 72 h

Row | IC50 (LNCaP) [µM] | IC50 (DU-145) [µM] | IC50 (PC-3) [µM] | SMILES | IC50 (CWR22R) [µM]
1 | 2.37 | > 10 | 2.34 | Cc1ncsc1-c1ccc(CNC(=O)[C@@H]2C[C@@H](O)CN2C(=O)[C@@H](NC(=O)COCCOCCOc2ccc(Cl)cc2C(=O)Nc2ccc([N+](=O)[O-])cc2Cl)C(C)(C)C)cc1 | 4.94
2 | > 10 | > 10 | > 10 | C#CCCOc1ccc(Cl)cc1C(=O)Nc1ccc([N+](=O)[O-])cc1Cl | > 10
3 | > 10 | > 10 | > 10 | O=C(O)COCCOCCOc1ccc(Cl)cc1C(=O)Nc1ccc([N+](=O)[O-])cc1Cl | > 10
4 | > 10 | > 10 | > 10 | CC(C)(C)OC(=O)COCCOCCN=[N+]=[N-] | > 10
5 | 3.08 | > 10 | > 10 | CC(C)(C)OC(=O)COCCOCCn1cc(CCOc2ccc(Cl)cc2C(=O)Nc2ccc([N+](=O)[O-])cc2Cl)nn1 | > 10
6 | 1.04 | > 10 | 2.79 | Cc1ncsc1-c1ccc(CNC(=O)[C@@H]2C[C@@H](O)CN2C(=O)[C@@H](NC(=O)COCCOCCn2cc(CCOc3ccc(Cl)cc3C(=O)Nc3ccc([N+](=O)[O-])cc3Cl)nn2)C(C)(C)C)cc1 | 6.88
7 | > 10 | > 10 | > 10 | O=C(O)COCCOCCn1cc(CCOc2ccc(Cl)cc2C(=O)Nc2ccc([N+](=O)[O-])cc2Cl)nn1 | > 10
8 | 0.8 | 3.65 | 1.92 | O=C(Nc1ccc([N+](=O)[O-])cc1Cl)c1cc(Cl)ccc1O [NICLOSAMIDE] | 1.61
